Laboratory results: patent US7504508B2, “PGD2 receptor antagonists for the treatment of inflammatory diseases” (Millennium Pharmaceuticals, Inc., priority 2002, dated 2009)

These compounds were tested against T1, cloned human CRTH2 receptor (Homo sapiens, UniProt Q9Y5Y4) (assay: Radioligand membrane binding assay: inhibition of [3H] PGD2 binding to CRTH2 (Scintillation Proximity Assay)). Settings: inhibition of [3H] PGD2 binding to membranes of HEK-293 cells stably expressing human CRTH2; SPA; 10 point curve from 10 μM; room temperature, approximately 2 hours.
T1 construct: purchased Biosignal; host or cells: HEK-293 cells stably expressing human CRTH2 and G-alpha-16 (membranes)
T1 sequence (Q9Y5Y4 1-395): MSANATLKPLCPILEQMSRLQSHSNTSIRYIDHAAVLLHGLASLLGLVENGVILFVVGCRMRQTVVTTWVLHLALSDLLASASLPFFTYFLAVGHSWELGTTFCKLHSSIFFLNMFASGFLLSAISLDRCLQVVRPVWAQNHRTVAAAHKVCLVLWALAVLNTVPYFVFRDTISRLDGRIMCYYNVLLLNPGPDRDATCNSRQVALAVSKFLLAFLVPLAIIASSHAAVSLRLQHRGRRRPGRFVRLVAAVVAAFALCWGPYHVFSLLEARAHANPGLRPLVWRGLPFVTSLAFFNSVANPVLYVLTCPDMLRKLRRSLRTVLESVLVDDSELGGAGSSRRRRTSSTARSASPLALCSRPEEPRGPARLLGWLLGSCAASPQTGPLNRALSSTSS
Method: This radioligand membrane binding assay evaluates the ability of compounds to inhibit [^3H] Prostaglandin D2 (PGD2) binding to the cloned human CRTH2 receptor stably expressed in HEK-293 cells (expressing human CRTh2 receptor and α subunit or the heteronimeric G protein 16 were prepared by Biosignal Company) using Scintillation Proximity Assay.
A binding buffer containing 50 mM Tris-HCl (pH 7.5), 5 mM MgCl2 and 1 mM EDTA was prepared immediately prior to performing the assay. A bead/membrane solution at twice the final assay concentration comprising membranes (membranes bought from Biosignal) from the HEK-293 cells cloned to express CRTH2 receptor bound to and [3H] PGD2 at twotimes the final assay concentration were prepared and stored on ice before adding to wells. Cold PGD2 at twenty times the final assay concentration was prepared and stored on ice before adding to wells defining non-specific binding (NSB) corning plates #3653 were used for this assay.
10 mM stock concentrations of compounds in 100% DMSO were prepared and stored at room temperature. A 10 point concentration response curve was then constructed for each compound, starting at 10 μM (final assay concentration). The compounds were prepared at 40 times final assay concentrations with nine consequent-3-fold dilutions.
0.1 μl of each concentration of compound were added to the appropriate well of the 384 plate and 2 μl of cold PGD2 was added into the wells defining NSB. 20 μl of [^3H] PGD2 and then 20 μl of 2× of bead/membrane solution were then added to each well.
The plates were allowed to incubate at room temperature for approximately 2 hours and then counted on Packard Topcount using SPA tritium protocol for 1 minute/well.
The percent inhibition of PGD2 binding (PGD2 used at the KD value or lower) to the HEK-293 cell membranes was determined, the assay was always run as duplicate for n=1 for a total of n=2.

SMILES	Ki
CC(=O)N(c1ccccc1)[C@@H]1C[C@H](C)N(C(=O)c2cccn2C)c2ccccc21 (racemic) [Compound A-130, (±)-Cis-N-[2-methyl-1-(1-methyl-1H-pyrrole-2-carbonyl)-1,2,3,4-tetrahydro-quinolin-4-yl]-N-phenyl-acetamide]	< 10 µM
CCC(=O)N(c1ccccc1)[C@@H]1C[C@H](C)N(C(=O)c2cccc(Cl)c2)c2ccccc21 (racemic) [Compound A-35, (±)-Cis-N-[1-(3-chloro-benzoyl)-2-methyl-1,2,3,4-tetrahydro-quinolin-4-yl]-N-phenyl-propionamide]	< 10 µM
CC(=O)N(C)CC(=O)N(c1ccccc1)[C@@H]1C[C@H](C)N(C(=O)c2ccc(F)cc2)c2ccccc21 (racemic) [Compound A-49, (±)-Cis-2-(acetyl-methyl-amino)-N-[1-(4-fluoro-benzoyl)-2-methyl-1,2,3,4-tetrahydro-quinolin-4-yl]-N-phenyl-acetamide]	< 10 µM
CC(C)CC(=O)N(c1ccccc1)[C@@H]1C[C@H](C)N(C(=O)c2ccc(F)cc2)c2ccccc21 (racemic) [Compound A-132, (±)-Cis-N-[1-(4-fluoro-benzoyl)-2-methyl-1,2,3,4-tetrahydro-quinolin-4-yl]-3-methyl-N-phenyl-butyramide]	< 10 µM
CC(=O)N(c1ccccc1)[C@H]1C[C@@H](C)N(C(=O)c2ccc(C(C)(C)C)cc2)c2ccccc21 [Compound A-8, (2R,4S)-cis-N-[1-(4-tert-butyl-benzoyl)-2-methyl-1,2,3,4-tetrahydro-quinolin-4-yl]-N-phenyl-acetamide]	< 60 µM

Further lines, results first:

Ki	SMILES
< 10 µM	COc1ccc(C(=O)N2c3ccccc3[C@H](N(C(C)=O)c3ccc(C(=O)CCC(=O)O)c(Cl)c3)C[C@@H]2C)cc1 [Compound D-2, (2S,4R)-4-(4-{Acetyl-[1-(4-methoxy-benzoyl)-2-methyl-1,2,3,4-tetrahydro-quinolin-4-yl]-amino}-2-chloro-phenyl)-4-oxo-butyric acid]
< 10 µM	CCC(=O)N(c1ccc(Cl)cc1)[C@@H]1C[C@H](C)N(C(=O)c2ccc(F)cc2)c2cccc(OC)c21 (racemic) [Compound B-86, (±)-Cis-N-(4-chloro-phenyl)-N-[1-(4-fluoro-benzoyl)-5-methoxy-2-methyl-1,2,3,4-tetrahydro-quinolin-4-yl]-propionamide]
< 10 µM	CCC(=O)N(c1ccc(Cl)cc1)[C@@H]1C[C@H](C)N(C(=O)c2ccc(F)cc2)c2ccc(OC(C)(C)C(=O)O)cc21 (racemic) [Compound B-66, (±)-Cis-2-[4-[(4-chloro-phenyl)-propionyl-amino]-1-(4-fluoro-benzoyl)-2-methyl-1,2,3,4-tetrahydro-quinolin-6-yloxy]-2-methyl-propionic acid]
< 60 µM	COc1cccc(C(=O)N2c3ccccc3[C@H](N(C(C)=O)c3ccccc3)C[C@@H]2c2ccccc2)c1 (racemic) [Compound B-100, (±)-Cis-N-[1-(3-methoxy-benzoyl)-2-phenyl-1,2,3,4-tetrahydro-quinolin-4-yl]-N-phenyl-acetamide]
< 10 µM	Cc1ccc(C(=O)N2c3ccccc3[C@@H](N(C(=O)C(C)C)c3ccc(Cl)cc3)C[C@H]2C)s1 [Compound B-11, (2R,4S)-cis-N-(4-Chloro-phenyl)-N-[2-methyl-1-(5-methyl-thiophene-2-carbonyl)-1,2,3,4-tetrahydro-quinolin-4-yl]-isobutyramide]
< 10 µM	CCC(=O)N(c1ccc(Cl)cc1)[C@@H]1C[C@H](C(F)(F)F)N(C(=O)c2ccc(F)cc2)c2ccc(OC)cc21 (racemic) [Compound B-109, (±)-Cis-N-(4-chloro-phenyl)-N-[1-(4-fluoro-benzoyl)-6-methoxy-2-trifluoromethyl-1,2,3,4-tetrahydro-quinolin-4-yl]-propionamide]
< 10 µM	CCC[C@H]1C[C@@H](N(C(=O)CC)c2ccc(Cl)cc2)c2ccccc2N1C(=O)c1ccc(F)cc1 (racemic) [Compound B-103, (±)-Cis-N-(4-chloro-phenyl)-N-[1-(4-fluoro-benzoyl)-2-propyl-1,2,3,4-tetrahydro-quinolin-4-yl]-propionamide]
